Reference: publication PMC6114103, “17-DMAG inhibits the multiplication of several Babesia species and Theileria equi on in vitro cultures, and Babesia microti in mice” (International Journal for Parasitology: Drugs and Drug …, 2018)

Columns and labels:
[1] = tested on: B. bovis (Texas strain); assay: in vitro multiplication inhibition assay (SYBR Green I fluorescence, 96 h), single drugs and two-drug combinations; assay type: cell-based, Babesia bovis; conditions: B. bovis, 96 h, triplicate, mean ± SD; read-out: IC50 on in vitro culture of parasites
Method: (§1) Babesia parasite cultures were maintained using a microaerophilic stationary-phase culture system ([Levy and Ristic, 1980]; [Avarzed et al., 1997]; [Igarashi et al., 1998]). Briefly, bovine Babesia parasites were grown in bovine red blood cells (RBC) in the specific complete medium for each species. The medium for B. bovis (Texas strain) contained GIT medium supplemented with 10% bovine serum, while the medium for B. bigemina (Argentina strain) and B. divergens (Germany strain) was Medium 199 and RPMI 1640 medium, respectively, supplemented with 40% bovine serum ([Rizk et al., 2016]). B. caballi (USDA strain) was grown using equine RBC in GIT medium supplemented with 10% equine serum. T. equi (USDA strain) was grown in equine RBC in M199 medium supplemented with 40% equine serum and hypoxanthine (MP Biomedicals, USA) at a final concentration of 13.6 μg/ml. All of the media included 60 U/ml penicillin G, 60 μg/ml streptomycin, and 0.15 μg/ml amphotericin B (Sigma-Aldrich, USA). The cultures were incubated at 37 °C in a humidified chamber with an atmosphere of 5% CO2, 5% O2, and 90% N2.
(§2) The assays were conducted in accordance with the protocol described previously with modification ([Guswanto et al., 2014]). Briefly, the cultures of B. bovis, B. bigemina, B. divergens, B. caballi, and T. equi with a parasitemia of 8%, 3%, 10%, 4%, and 9%, respectively, were harvested and adjusted to 1% parasitemia with fresh RBC before the inhibition assay. The 60 inner wells of a 96-well plate were used in the assay, while the peripheral wells were filled with sterile distillate water to reduce evaporation during incubation. To each well in triplicate, 2.5 μl of infected RBC (5 μl for B. divergens, B. caballi, and T. equi) was added and mixed with a culture medium containing the drug to a total volume of 100 μl. The stock solution of 17-DMAG, DA, and AV was dissolved in a culture medium at various concentrations using two-fold dilution. A culture medium containing DMSO at a final concentration of 0.2% was added to the well with infected RBC as a positive control and to the well with uninfected RBC as a negative control. Furthermore, a drug combination assay was conducted in parallel with the single drug assay at the constant ratio in accordance with the Chou–Talalay method ([Chou, 2006]). In the same plate with a single drug inhibition assay, a two-drug combination (DA+17-DMAG, DA + AV, and 17-DMAG + AV) at concentrations of 0.25 x IC50, 0.5 x IC50, IC50, 2 x IC50, and 4 x IC50 was added to the well containing infected RBC in triplicate. The plate was incubated in a humidified incubator with 5% CO2, 5% O2, and 90% N2. After 96 h, 100 μl of a lysis buffer containing SYBR Green I was added to each well. The plate was wrapped with aluminum foil to avoid direct light exposure and incubated at room temperature. After incubation for 6 h, fluorescence values were measured using a fluorescence spectrophotometer (Fluoroskan Ascent, Thermo Fisher Scientific, USA) with the excitation and emission wavelength at 485 nm and 518 nm, respectively. The fluorescence data were subtracted from the negative control and used to calculate the IC50.
(§3) The IC50 of 17-DMAG, DA, and AV was calculated from the percentage of inhibition on the in vitro multiplication of all tested species using non-linear regression (curve fit), available in GraphPad Prism (GraphPad Software Inc., USA). Combination index (CI) values for the drug combination were calculated using CompuSyn software ([Chou, 2006]). Since the chemotherapy effect is preferable at the highest inhibition, the degree of synergism was determined as the weighted average of CI values using a formula ((1 x IC50) + (2 x IC75) + (3 x IC90) + (4 x IC95))/10 ([Chou, 2006]). The differences among groups regarding the parasitemia, hematology profiles, and body weight in the B. microti–infected mouse model were analyzed using Student's t-test, available in GraphPad Prism software.

[2] = tested on: B. bigemina (Argentina strain); assay: as above; assay type: cell-based, Babesia bigemina; conditions: B. bigemina, 96 h, triplicate, mean ± SD; read-out: IC50 on in vitro culture of parasites
Method: as §1, §2, §3

[3] = tested on: B. divergens (Germany strain); assay: as above; assay type: cell-based, Babesia divergens; conditions: B. divergens, 96 h, triplicate, mean ± SD; read-out: IC50 on in vitro culture of parasites
Method: as §1, §2, §3

[4] = tested on: B. caballi (USDA strain); assay: as above; assay type: cell-based, Babesia caballi; conditions: B. caballi, 96 h, triplicate, mean ± SD; read-out: IC50 on in vitro culture of parasites
Method: as §1, §2, §3

[5] = tested on: NIH/3T3 cells; assay: cytotoxicity (drug-exposure viability) assay, CCK-8; assay type: cell-based, mouse
Method: (§4) Each medium was supplemented with 10% fetal bovine serum, 0.5% penicillin/streptomycin (Gibco, Life Technologies, USA), and an additional 1% glutamine. The medium was changed every 3–4 days and incubated until approximately 80% confluent. The cells were free from mycoplasma contamination after being checked by staining with DAPI (Sigma-Aldrich, USA). The detachment of cells from the culture flask was done using TrypLE™ Express (Gibco, Life Technologies, USA) after washing two times with Dulbecco's phosphate-buffered saline (DPBS). Subsequently, the counting of viable cells was carried out using a Neubauer improved C-Chip (NanoEntek Inc., Korea) after staining with 0.4% trypan blue solution. The drug-exposure viability assay was performed in accordance with the recommendation of the Cell Counting Kit-8 (CCK-8, Dojindo, Japan). Briefly, the assay was carried out using a 96-well plate at 37 °C in a humidified incubator with 5% CO2. One hundred microliters of cells at a density of 5 × 10^4 cells/ml was seeded per well and allowed to attach to the plate for 24 h. […] The exposure of drugs was carried out for 24 h, followed by the addition of 10 μl of CCK-8. The plate was further incubated for 3 h, and the absorbance was measured at 450 nm using a microplate reader.

[6] = tested on: MDBK cells; assay: as above; assay type: cell-based, bovine
Method: as §4

[7] = tested on: B. microti (Munich strain); assay: inhibition assay using a B. microti-infected mouse model; assay type: in vivo, BALB/c mice; conditions: 17-DMAG 30, DA 25, AV 20 mg/kg BW; 17-DMAG + DA 15 + 15, 17-DMAG + AV 15 + 10, DA + AV 15 + 10 mg/kg BW; 5 consecutive days
Method: B. microti (Munich strain) was recovered from -80 °C stock in two 6-week female Balb/c mice (Clea, Japan). The parasitemia was monitored every 2 days. […] The inhibitory effect of 17-DMAG was also determined using a B. microti mouse model according to the previous protocol ([Goo et al., 2010]). Briefly, 35 female BALB/c mice aged 8 weeks received an intraperitoneal injection of 1 × 10^7 of B. microti-infected RBC and were divided into seven groups. Another group consisting of five mice was kept uninfected and untreated as a control. The multiplication of B. microti was observed from blood smears after staining with Giemsa using a light microscope. The drug treatment was initiated to all infected mice on day five, after the parasitemia reached approximately 1%, and continue to the total of five consecutive days. Group 1 was treated with 4% DMSO in saline water as a control intraperitoneally. […] The parasitemia was estimated from Giemsa-stained blood smears using microscopy in approximately 5000 RBC. Furthermore, the hematology profiles including RBC, hemoglobin, and hematocrit were measured from 10 μl of mouse blood using an automatic hematology analyzer (Celltac α MEK-6450, Nihon Kohden, Tokyo, Japan). The rate of parasitemia, hematology profiles, and mouse body weight was monitored for 60 days. The experiment was repeated once so each group contained 10 mice. […] Combination index (CI) values for the drug combination were calculated using CompuSyn software ([Chou, 2006]). […] The differences among groups regarding the parasitemia, hematology profiles, and body weight in the B. microti-infected mouse model were analyzed using Student's t-test, available in GraphPad Prism software. The difference was considered significant if P < 0.05.

[8] = introduction, background statement; ref Jilani et al., 2013; cited from earlier work
[9] = at a concentration of 40 μM, separate assay

Row | SMILES | IC50 [1] [nM] | IC50 [2] [nM] | IC50 [3] [nM] | IC50 [4] [nM] | IC50 ([5]; NIH/3T3, 24 h exposure, CCK-8, read-out: IC50 on cell line NIH/3T3) [nM] | inhibition on NIH/3T3 cell viability [5, 9] | IC50 ([6]; MDBK, 24 h exposure, CCK-8, read-out: IC50 on cell line MDBK) [nM] | inhibition on MDBK cell viability [6, 9] | day p.i. on which parasite no longer detected in blood smears via microscopy (parasite clearance) [7] [day p.i.] | solubility [8]
1 | CC(=O)NCC(=O)O.CC(=O)NCC(=O)O.N=C(N)c1ccc(N=NNc2ccc(C(=N)N)cc2)cc1 [DA, diminazene aceturate] | 190 ± 42.1 | 1850 ± 104 | 378 ± 39.3 | 13.4 ± 3.6 | > 40000 | did not show any inhibition | > 40000 | did not show any inhibition | ≤ 28 | 
2 | C=CCNC1=C2C[C@@H](C)C[C@H](OC)[C@H](O)[C@@H](C)/C=C(\C)[C@H](OC(N)=O)[C@@H](OC)/C=C\C=C(/C)C(=O)NC(=CC1=O)C2=O [17-AAG, 17-N-allylamino-17-demethoxygeldanamycin] |  |  |  |  |  |  |  |  |  | poor solubility
3 | COC1=C2C[C@@H](C)C[C@H](OC)[C@H](O)[C@@H](C)/C=C(\C)[C@H](OC(N)=O)[C@@H](OC)/C=C\C=C(/C)C(=O)NC(=CC1=O)C2=O [geldanamycin] |  |  |  |  |  |  |  |  |  | poor solubility
